From US11000033B2, “Ketone or oxime compound, and herbicide” (NISSAN CHEMICAL CORPORATION, priority 2014, dated 2021)

What was measured:
Format in all cases: in vivo
[1] = test system: wheat; assay: Test Example 4: effect on crop by soil treatment (symbol e); conditions: for e: wheat, effect grade on crop: 320 g/ha
In short: (§1)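 Crop seed is sown in spots together with several weed species in a box of sterilized diluvial soil. It is covered by about 1.5 cm of soil and kept in a greenhouse held between 25° C. and 30° C.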

[2] = test system: Setaria viridis; assay: Test Example 5: herbicidal effect by foliage application, plastic box (symbol G); conditions: 320 g/ha, 3 weeks after application
In short: (§2)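 Herbicide, formulated as an emulsion and diluted in water, is sprayed onto the aerial parts of 14-day seedlings. These were grown at 25° C. to 30° C. in sterilized diluvial soil; effects are graded after 3 weeks.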

[3] = test system: Echinochloa crus-galli var. crus-galli; assay: Test Example 3: herbicidal effect by foliage application, Wagner pot (symbol H); conditions: application herbicide amount 320 g/ha
In short: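 Rating at 3 weeks post-spray, by defined criteria. Treatment: emulsion diluted with water to a predetermined amount, applied evenly to foliage of 14-day-old plants raised in alluvial soil flooded 0.1–0.5 cm deep at 25–30 °C, rice co-sown.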

[4] = test system: Amaranthus retroflexus; assay: Test Example 4: herbicidal effect by soil treatment (symbol N)
In short: (§3)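 Seeds were sown in sterilized diluvial soil, covered with about 1.5 cm of soil, and the soil surface was sprayed with a water-diluted emulsion of the compound at a predetermined rate. Plants grew in a greenhouse at 25° C. to 30° C.; effects were scored visually 3 weeks after application.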

[5] = test system: soybean; assay: Test Example 5: effect on crop by foliage application, plastic box (symbol d); conditions: 320 g/ha, 3 weeks after application
In short: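 Diluvial soil, sterilized and boxed (21 × 13 × 7 cm), received spot-sown seed covered by about 1.5 cm soil; plants were then greenhouse-grown at 25–30° C.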

[6] = test system: beet; assay: Test Example 4: effect on crop by soil treatment (symbol f); conditions: for f: beet, effect grade on crop: 320 g/ha
In short: as §1

[7] = test system: Lolium multiflorum Lam.; assay: Test Example 4: herbicidal effect by soil treatment (symbol K)
In short: as §3

[8] = test system: Echinochloa crus-galli var. crus-galli; assay: Test Example 5: herbicidal effect by foliage application, plastic box (symbol H); conditions: 320 g/ha, 3 weeks after application
In short: as §2

[9] = test system: Amaranthus retroflexus; assay: Test Example 5: herbicidal effect by foliage application, plastic box (symbol N); conditions: 320 g/ha, 3 weeks after application
In short: as §2

[10] = test system: Galium spurium; assay: Test Example 5: herbicidal effect by foliage application, plastic box (symbol Q); conditions: 320 g/ha, 3 weeks after application
In short: as §2

[11] = test system: Abutilon theophrasti; assay: Test Example 5: herbicidal effect by foliage application, plastic box (symbol M); conditions: 320 g/ha, 3 weeks after application
In short: as §2

[12] = test system: Chenopodium album; assay: Test Example 4: herbicidal effect by soil treatment (symbol O)
In short: as §3

[13] = test system: Setaria viridis; assay: Test Example 4: herbicidal effect by soil treatment (symbol G)
In short: as §3

[14] = test system: Chenopodium album; assay: Test Example 5: herbicidal effect by foliage application, plastic box (symbol O); conditions: 320 g/ha, 3 weeks after application
In short: as §2

[15] = test system: Monochoria vaginalis; assay: Test Example 1: herbicidal activity, application before weed generation in submerged conditions (symbol C); conditions: application herbicide amount 320 g/ha
In short: (§4)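 In a flooded pot test with alluvial soil, the emulsion-formulated compound was diluted with water to a predetermined amount and applied to the floodwater immediately on the sowing day. Pots were held in a greenhouse at 25–30 °C for 3 weeks before each weed was rated.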

[16] = test system: soybean; assay: Test Example 4: effect on crop by soil treatment (symbol d); conditions: for d: soybean, effect grade on crop: 320 g/ha
In short: as §1

[17] = test system: Scirpus juncoides; assay: Test Example 1: herbicidal activity, application before weed generation in submerged conditions (symbol B); conditions: application herbicide amount 320 g/ha
In short: as §4

[18] = test system: Avena fatua; assay: Test Example 4: herbicidal effect by soil treatment (symbol I)
In short: as §3

[19] = test system: Apera spica-venti; assay: Test Example 4: herbicidal effect by soil treatment (symbol L); conditions: application herbicide amount 320 g/ha
In short: as §3

[20] = application herbicide amount 320 g/ha

`C=CCN(CC=C)C(=O)OC1=C(c2c(C)cc(C)cc2C)C(=O)C(CC(C)=NOC)C1` (stereo not shown) [1-153] was tested, and the “e: wheat, effect grade on crop” value [1] was 2 (Herbicidal ratio of 20% or higher and lower than 40%), the “G: Setaria viridis, herbicidal effect (criteria 0-5)” value (from here on “G: Setaria viridis … (criteria 0-5)”) [2] was 5 (Herbicidal ratio of 90% or more (almost completely withered)) and the “herbicidal effect on H (Echinochloa crus-galli var. crus-galli), grade 0-5” value (from here on “herbicidal effect on H”) [3] was 5 (Herbicidal ratio of 90% or more (almost completely withered)). The “N: Amaranthus retroflexus, herbicidal effect grade” value ([4]; 320 g/ha) was 0 (Herbicidal ratio of 5% or lower (almost no effect)), the “d: soybean, effect on crop (criteria 0-5)” value (from here on “d: soybean … (criteria 0-5)”) [5] was 1 (Herbicidal ratio of 5% or higher and lower than 20%) and the “f: beet, effect grade on crop” value [6] was 0 (Herbicidal ratio of 5% or lower (almost no effect)). For the same compound, the “K: Lolium multiflorum Lam., herbicidal effect grade” value ([7]; 320 g/ha) was 4 (Herbicidal ratio of 70% or higher and lower than 90%), the “H: Echinochloa crus-galli var. crus-galli, herbicidal effect (criteria 0-5)” value [8] was 5 (Herbicidal ratio of 90% or more (almost completely withered)) and the “N: Amaranthus retroflexus, herbicidal effect (criteria 0-5)” value [9] was 4 (Herbicidal ratio of 70% or higher and lower than 90%). For the same compound, the “Q: Galium spurium, herbicidal effect (criteria 0-5)” value (“Q: Galium spurium” below) [10] was 3 (Herbicidal ratio of 40% or higher and lower than 70%), the “M: Abutilon theophrasti, herbicidal effect (criteria 0-5)” value [11] was 4 (Herbicidal ratio of 70% or higher and lower than 90%) and the “O: Chenopodium album, herbicidal effect grade” value ([12]; 320 g/ha) was 0 (Herbicidal ratio of 5% or lower (almost no effect)). The “G: Setaria viridis, herbicidal effect grade” value ([13]; 320 g/ha) was 1 (Herbicidal ratio of 5% or higher and lower than 20%), the “O: Chenopodium album, herbicidal effect (criteria 0-5)” value (“O: Chenopodium album … (criteria 0-5)” for short) [14] was 0 (Herbicidal ratio of 5% or lower (almost no effect)) and the “Herbicidal effect grade, C: Monochoria vaginalis” value (“Herbicidal effect grade, C” below) [15] was 0 (Herbicidal ratio of 5% or lower (almost no effect)). For the same compound, the “d: soybean, effect grade on crop” value [16] was 0 (Herbicidal ratio of 5% or lower (almost no effect)), the “Herbicidal effect grade, B: Scirpus juncoides” value (shortened to “Herbicidal effect grade, B”) [17] was 3 (Herbicidal ratio of 40% or higher and lower than 70%) and the “I: Avena fatua, herbicidal effect grade” value ([18]; 320 g/ha) was 0 (Herbicidal ratio of 5% or lower (almost no effect)).

`CON=C(C)CC1CC(OC(=O)N2CCCCC2)=C(c2c(C)cc(C)cc2C)C1=O` (stereo not shown) [1-151] was tested, and the “e: wheat, effect grade on crop” value [1] was 0 (Herbicidal ratio of 5% or lower (almost no effect)), the “G: Setaria viridis … (criteria 0-5)” value [2] was 5 (Herbicidal ratio of 90% or more (almost completely withered)) and the “herbicidal effect on H” value [3] was 4 (Herbicidal ratio of 70% or higher and lower than 90%). The “N: Amaranthus retroflexus, herbicidal effect grade” value ([4]; 320 g/ha) was 0 (Herbicidal ratio of 5% or lower (almost no effect)), the “d: soybean … (criteria 0-5)” value [5] was 2 (Herbicidal ratio of 20% or higher and lower than 40%) and the “f: beet, effect grade on crop” value [6] was 0 (Herbicidal ratio of 5% or lower (almost no effect)). For the same compound, the “K: Lolium multiflorum Lam., herbicidal effect grade” value ([7]; 320 g/ha) was 5 (Herbicidal ratio of 90% or more (almost completely withered)), the “H: Echinochloa crus-galli var. crus-galli, herbicidal effect (criteria 0-5)” value [8] was 5 (Herbicidal ratio of 90% or more (almost completely withered)) and the “N: Amaranthus retroflexus, herbicidal effect (criteria 0-5)” value [9] was 0 (Herbicidal ratio of 5% or lower (almost no effect)). For the same compound, the “Q: Galium spurium” value [10] was 0 (Herbicidal ratio of 5% or lower (almost no effect)), the “M: Abutilon theophrasti, herbicidal effect (criteria 0-5)” value [11] was 3 (Herbicidal ratio of 40% or higher and lower than 70%) and the “O: Chenopodium album, herbicidal effect grade” value ([12]; 320 g/ha) was 0 (Herbicidal ratio of 5% or lower (almost no effect)). For the same compound, the “O: Chenopodium album … (criteria 0-5)” value [14] was 0 (Herbicidal ratio of 5% or lower (almost no effect)), the “Herbicidal effect grade, C” value [15] was 0 (Herbicidal ratio of 5% or lower (almost no effect)) and the “d: soybean, effect grade on crop” value [16] was 0 (Herbicidal ratio of 5% or lower (almost no effect)). For the same compound, the “Herbicidal effect grade, B” value [17] was 3 (Herbicidal ratio of 40% or higher and lower than 70%) and the “I: Avena fatua, herbicidal effect grade” value ([18]; 320 g/ha) was 3 (Herbicidal ratio of 40% or higher and lower than 70%).

`CON=C(C)CC1CC(OC(=O)N2CCCC2)=C(c2c(C)cc(C)cc2C)C1=O` (stereo not shown) [1-150] was tested, and the “e: wheat, effect grade on crop” value [1] was 1 (Herbicidal ratio of 5% or higher and lower than 20%), the “G: Setaria viridis … (criteria 0-5)” value [2] was 4 (Herbicidal ratio of 70% or higher and lower than 90%) and the “herbicidal effect on H” value [3] was 5 (Herbicidal ratio of 90% or more (almost completely withered)). The “d: soybean … (criteria 0-5)” value [5] was 0 (Herbicidal ratio of 5% or lower (almost no effect)), the “f: beet, effect grade on crop” value [6] was 0 (Herbicidal ratio of 5% or lower (almost no effect)) and the “K: Lolium multiflorum Lam., herbicidal effect grade” value ([7]; 320 g/ha) was 5 (Herbicidal ratio of 90% or more (almost completely withered)). The “H: Echinochloa crus-galli var. crus-galli, herbicidal effect (criteria 0-5)” value [8] was 5 (Herbicidal ratio of 90% or more (almost completely withered)), the “N: Amaranthus retroflexus, herbicidal effect (criteria 0-5)” value [9] was 0 (Herbicidal ratio of 5% or lower (almost no effect)) and the “Q: Galium spurium” value [10] was 0 (Herbicidal ratio of 5% or lower (almost no effect)). The “M: Abutilon theophrasti, herbicidal effect (criteria 0-5)” value [11] was 3 (Herbicidal ratio of 40% or higher and lower than 70%), the “O: Chenopodium album, herbicidal effect grade” value ([12]; 320 g/ha) was 0 (Herbicidal ratio of 5% or lower (almost no effect)) and the “G: Setaria viridis, herbicidal effect grade” value ([13]; 320 g/ha) was 0 (Herbicidal ratio of 5% or lower (almost no effect)). The “O: Chenopodium album … (criteria 0-5)” value [14] was 0 (Herbicidal ratio of 5% or lower (almost no effect)), the “Herbicidal effect grade, C” value [15] was 0 (Herbicidal ratio of 5% or lower (almost no effect)) and the “d: soybean, effect grade on crop” value [16] was 0 (Herbicidal ratio of 5% or lower (almost no effect)). The “Herbicidal effect grade, B” value [17] was 3 (Herbicidal ratio of 40% or higher and lower than 70%) and the “I: Avena fatua, herbicidal effect grade” value ([18]; 320 g/ha) was 2 (Herbicidal ratio of 20% or higher and lower than 40%).

`CON=C(C)CC1CC(O)=C(c2c(C)cc(C)cc2OC)C1=O` (stereo not shown) [6-037, 3-hydroxy-2-(2-methoxy-4,6-dimethylphenyl)-5-{2-(methoxyimino)propyl}cyclopent-2-enone] was tested, and the “e: wheat, effect on crop grade” value [1, 20] was 5 (Herbicidal ratio of 90% or more (almost completely withered)), the “G: Setaria viridis, herbicidal effect grade” value [2] was 5 (Herbicidal ratio of 90% or more (almost completely withered)) and the “herbicidal effect on H” value [3] was 5 (Herbicidal ratio of 90% or more (almost completely withered)). The “N: Amaranthus retroflexus, herbicidal effect grade” value [4, 20] was 3 (Herbicidal ratio of 40% or higher and lower than 70%), the “d: soybean, effect on crop grade” value [5] was 4 (Herbicidal ratio of 70% or higher and lower than 90%) and the “f: beet, effect on crop grade” value [6, 20] was 0 (Herbicidal ratio of 5% or lower (almost no effect)). For the same compound, the “K: Lolium multiflorum Lam., herbicidal effect grade” value [7, 20] was 5 (Herbicidal ratio of 90% or more (almost completely withered)), the “H: Echinochloa crus-galli var. crus-galli, herbicidal effect grade” value [8] was 5 (Herbicidal ratio of 90% or more (almost completely withered)) and the “N: Amaranthus retroflexus, herbicidal effect grade” value [9] was 5 (Herbicidal ratio of 90% or more (almost completely withered)). For the same compound, the “M: Abutilon theophrasti, herbicidal effect grade” value [11] was 5 (Herbicidal ratio of 90% or more (almost completely withered)), the “O: Chenopodium album, herbicidal effect grade” value [12, 20] was 0 (Herbicidal ratio of 5% or lower (almost no effect)) and the “G: Setaria viridis, herbicidal effect grade” value [13, 20] was 5 (Herbicidal ratio of 90% or more (almost completely withered)). For the same compound, the “O: Chenopodium album, herbicidal effect grade” value [14] was 3 (Herbicidal ratio of 40% or higher and lower than 70%), the “Herbicidal effect grade, C” value [15] was 4 (Herbicidal ratio of 70% or higher and lower than 90%) and the “L: Apera spica-venti, herbicidal effect grade” value [19] was 5 (Herbicidal ratio of 90% or more (almost completely withered)). For the same compound, the “d: soybean, effect on crop grade” value [16, 20] was 2 (Herbicidal ratio of 20% or higher and lower than 40%), the “Herbicidal effect grade, B” value [17] was 5 (Herbicidal ratio of 90% or more (almost completely withered)) and the “I: Avena fatua, herbicidal effect grade” value [18, 20] was 5 (Herbicidal ratio of 90% or more (almost completely withered)).
